Results taken from ChEMBL document CHEMBL1201862, “PubChem BioAssay data set” (2004).
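Compound exposure: 48 hours, 5 concentrations, 96-well plates. GI50: concentration for 50% inhibition of growth.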 Activity calls are given as the source filed them. Rule as the data show it: active = GI50 up to about 1.1 µM and inactive = higher.

Tests used:
Assay in all cases: growth of human tumour cells (NCI), 48 h
[1] = tested on: NCI-H23
[2] = tested on: HT-29
[3] = tested on: SNB-19
[4] = tested on: ACHN
[5] = tested on: NCI-H460
[6] = tested on: OVCAR-3
[7] = tested on: KM12
[8] = tested on: COLO 205
[9] = tested on: U-251
[10] = tested on: SW-620
[11] = tested on: SF-539
[12] = tested on: SK-OV-3
[13] = tested on: 786-0
[14] = tested on: K562
[15] = tested on: OVCAR-8
[16] = tested on: IGROV-1
[17] = tested on: SK-MEL-5
[18] = tested on: SN12C
[19] = tested on: HCT-15
[20] = tested on: SNB-75

SMILES	GI50 [1]	GI50 [2]	GI50 [3]	GI50 [4]	GI50 [5]	GI50 [6]	GI50 [7]	GI50 [8]	GI50 [9]	GI50 [10]	GI50 [11]	GI50 [12]	GI50 [13]	GI50 [14]	GI50 [15]	GI50 [16]	GI50 [17]	GI50 [18]	GI50 [19] [µM]	GI50 [20]
CC1=NN(C(=O)c2ccc(Cl)cc2)C(=O)/C1=C/c1cccc([N+](=O)[O-])c1	> 100 µM (inactive)	> 100 µM (inactive)	> 100 µM (inactive)	> 100 µM (inactive)	> 100 µM (inactive)	> 100 µM (inactive)	> 100 µM (inactive)	> 100 µM (inactive)	> 100 µM (inactive)	> 100 µM (inactive)	> 100 µM (inactive)	> 100 µM (inactive)	> 100 µM (inactive)	> 100 µM (inactive)	> 100 µM (inactive)	> 100 µM (inactive)	> 100 µM (inactive)	> 100 µM (inactive)	> 100	
COc1nc(N)c(NC(C)=O)c(=O)n1C	> 100 µM (inactive)	> 100 µM (inactive)	> 100 µM (inactive)	> 100 µM (inactive)	> 100 µM (inactive)		> 100 µM (inactive)	> 100 µM (inactive)	> 100 µM (inactive)	> 100 µM (inactive)	> 100 µM (inactive)			> 100 µM (inactive)	> 100 µM (inactive)	> 100 µM (inactive)		> 100 µM (inactive)	> 100	> 100 µM (inactive)
COc1ccc(S(=O)(=O)c2ccccc2[N+](=O)[O-])cc1	98.9 µM (inactive)	> 100 µM (inactive)	> 100 µM (inactive)		> 100 µM (inactive)	98.6 µM (inactive)	> 100 µM (inactive)	> 100 µM (inactive)	82.6 µM (inactive)	> 100 µM (inactive)	> 100 µM (inactive)	> 100 µM (inactive)		> 100 µM (inactive)	> 100 µM (inactive)	> 100 µM (inactive)	65 µM (inactive)	86.1 µM (inactive)	> 100	21.9 µM (inactive)
O=C(NN1C(=O)CSC1c1ccc(Cl)c(Cl)c1)c1ccncc1 (stereo not given)	84.7 µM (inactive)	60.1 µM (inactive)	> 100 µM (inactive)	38.4 µM (inactive)			38.1 µM (inactive)	> 100 µM (inactive)	> 100 µM (inactive)	> 100 µM (inactive)	> 100 µM (inactive)	> 100 µM (inactive)		37.8 µM (inactive)	86.7 µM (inactive)	34.4 µM (inactive)	46.9 µM (inactive)	75.9 µM (inactive)	72.6	> 100 µM (inactive)
CC(=O)c1sc2n(C)c(=O)c3ccccc3[n+]2c1C	> 100 µM (inactive)	> 100 µM (inactive)	> 100 µM (inactive)	> 100 µM (inactive)	> 100 µM (inactive)	> 100 µM (inactive)	> 100 µM (inactive)	> 100 µM (inactive)	> 100 µM (inactive)	> 100 µM (inactive)	> 100 µM (inactive)	> 100 µM (inactive)	> 100 µM (inactive)	> 100 µM (inactive)	> 100 µM (inactive)	> 100 µM (inactive)	> 100 µM (inactive)	> 100 µM (inactive)	> 100	
c1cc(Sc2nc(Sc3ccncc3)nc(Sc3ccncc3)n2)ccn1	> 100 µM (inactive)	> 100 µM (inactive)	> 100 µM (inactive)	> 100 µM (inactive)	> 100 µM (inactive)	> 100 µM (inactive)	> 100 µM (inactive)	> 100 µM (inactive)	> 100 µM (inactive)	> 100 µM (inactive)	> 100 µM (inactive)	> 100 µM (inactive)	> 100 µM (inactive)	> 100 µM (inactive)	> 100 µM (inactive)	> 100 µM (inactive)	> 100 µM (inactive)	> 100 µM (inactive)	> 100	
CCOC(=O)C1=C(c2ccccc2)C12N(Cc1ccccc1)C(=O)C2(c1ccccc1)c1ccccc1 (stereo not given)	39.1 µM (inactive)	43.2 µM (inactive)	96.8 µM (inactive)	37.7 µM (inactive)	28.2 µM (inactive)	33.8 µM (inactive)	29.4 µM (inactive)	25.9 µM (inactive)	37.8 µM (inactive)	42.2 µM (inactive)	45.1 µM (inactive)	47.9 µM (inactive)		16.5 µM (inactive)		56.1 µM (inactive)		57.8 µM (inactive)	30.8	
COc1ccc(-c2cc(N3CCN(c4ccc(Cl)cc4)CC3)c(C#N)c(=O)o2)cc1	21.8 µM (inactive)	> 100 µM (inactive)	2.93 µM (inactive)	6.64 µM (inactive)	10.5 µM (inactive)		> 100 µM (inactive)	> 100 µM (inactive)	21.2 µM (inactive)	40 µM (inactive)	3.55 µM (inactive)				5.28 µM (inactive)	10.9 µM (inactive)	11.9 µM (inactive)	15.1 µM (inactive)	40.7	3.25 µM (inactive)
